These results are taken from ChEMBL document CHEMBL1201862, “PubChem BioAssay data set” (2004).

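Briefly, cells in 96-well plates were exposed to five compound concentrations for 48 h, and endpoints were estimated by linear interpolation. GI50 is the concentration that inhibits growth by half.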 Calls of active or inactive are those of the source. Cut-off read from the data, not from the text of the source: active = GI50 up to about 1.1 µM and inactive = higher.

Test in all cases: NCI tumour cell line growth inhibition, 48 h
For assay [1], the system named is 786-0.
Assay [2] concerns M14.
The test system of assay [3] is SF-268.
The subject of assay [4] is SF-295.
Assay [5] relates to SW-620.
Assay [6] concerns CAKI-1.
Assay [7] concerns CCRF-CEM.
Assay [8] has as its system U-251.
Assay [9] has as its system TK-10.
In assay [10] the test system is HL-60.
Assay [11] concerns UACC-257.
For assay [12], the system named is SK-OV-3.
Assay [13] has as its system SK-MEL-28.
Assay [14] has as its system SN12C.
Assay [15] concerns UACC-62.
In assay [16] the test system is RPMI-8226.

With `COC1OC2COC(C)(C)OC2C(OC(C)=O)C1NC(=O)N(CCCl)N=O` (stereo unspecified), the GI50 in assay [1] was 59.4 µM (inactive); in assay [2], > 100 µM (inactive); in assay [3], 8.65 µM (inactive); in assay [4], 28.8 µM (inactive); in assay [5], > 100 µM (inactive); in [6], > 100 µM (inactive). Further, the GI50 in assay [7] is 24.3 µM (inactive); in [8], 33.7 µM (inactive); in assay [9], > 100 µM (inactive); in assay [10] it was 11.2 µM (inactive); in [11], > 100 µM (inactive); in assay [12], > 100 µM (inactive). Further, the GI50 is > 100 µM (inactive) in assay [13], > 100 µM (inactive) in assay [14] and 19.3 µM (inactive) in assay [15].
As for `CC[S+](C)c1ccc(-c2c3nc(c(-c4ccc([S+](C)CC)cc4)c4ccc([nH]4)c(-c4ccc([S+](C)CC)cc4)c4nc(c(-c5ccc([S+](C)CC)cc5)c5ccc2[nH]5)C=C4)C=C3)cc1.[O-][Cl+3]([O-])([O-])[O-].[O-][Cl+3]([O-])([O-])[O-].[O-][Cl+3]([O-])([O-])[O-].[O-][Cl+3]([O-])([O-])[O-]` (stereo unspecified), the GI50 in assay [16] was 7.78 µM (inactive); in assay [1], 27.7 µM (inactive); in [2], 24.9 µM (inactive); in assay [3] it was 21.8 µM (inactive); in assay [4], 28.7 µM (inactive); in [5] it was 28.3 µM (inactive). The GI50 in [6] was 39.1 µM (inactive); in assay [7] it was 18.9 µM (inactive); in assay [8], 16.6 µM (inactive); in [10], 6.41 µM (inactive); in assay [11], 31 µM (inactive); in assay [12], 30.4 µM (inactive). Further, the GI50 in assay [13] was 18.9 µM (inactive); in assay [14] it was 16.8 µM (inactive); in [15], 12.9 µM (inactive).
Take `Cc1ccc([S+]([O-])C(C)C(Cl)c2ccccc2)cc1` (stereo unspecified): the GI50 is 35.9 µM (inactive) in assay [16]; > 100 µM (inactive) in assay [1]; > 100 µM (inactive) in [2]; > 100 µM (inactive) in assay [3]; 86.7 µM (inactive) in assay [4]; > 100 µM (inactive) in [5]. Besides, the GI50 was > 100 µM (inactive) in assay [6]; 47.6 µM (inactive) in [7]; 35.6 µM (inactive) in assay [8]; > 100 µM (inactive) in assay [9]; 34.7 µM (inactive) in assay [11]; > 100 µM (inactive) in [12]. The results for the GI50 in assay [13], in assay [14] and in assay [15] were > 100 µM (inactive), > 100 µM (inactive) and 80 µM (inactive), respectively.
For the molecule `CC(=O)NC1C(OCc2ccccc2)OC(COC(=O)CCCCCCCCCCNC(=O)c2cccc3c(=O)c4ccccc4[nH]c23)C(O)C1OC(C)C(=O)NC(C)C(=O)NC(CCC(N)=O)C(N)=O` (stereo unspecified), the GI50 in assay [16] is 32.1 µM (inactive); in assay [1], > 100 µM (inactive); in [2], > 100 µM (inactive); in assay [3] it was > 100 µM (inactive); in assay [4], 71.1 µM (inactive); in assay [5], 96.6 µM (inactive). For the same molecule, the GI50 was > 100 µM (inactive) in [6]; 69.5 µM (inactive) in assay [8]; > 100 µM (inactive) in [9]; > 100 µM (inactive) in assay [10]; > 100 µM (inactive) in assay [11]; > 100 µM (inactive) in assay [12]. Besides, the figures for the GI50 in assay [13], in assay [14] and in [15] were 47.3 µM (inactive), > 100 µM (inactive) and 35.2 µM (inactive), respectively.
In the case of `[N-]=[N+]=NC1C(Br)C(=O)NC(=O)N1[C@H]1C[C@H](O)[C@@H](CO)O1` (stereo partly specified), the GI50 in assay [1], in assay [2], in assay [3], in assay [4], in assay [5] and in assay [8] was > 100 µM (inactive) in each case. The GI50 in [9], in assay [10], in [11], in assay [12], in [13] and in assay [14] was > 100 µM (inactive) in each case. For the same molecule, the GI50 in assay [15] is > 100 µM (inactive).
In the case of `N/N=c1\c2ccccc2c2cc3c(cc12)/c(=N/N)c1ccccc13`, the GI50 in [16], in assay [1], in assay [2], in [3], in [4] and in [5] was > 100 µM (inactive) throughout. The GI50 in assay [7], in [8], in assay [10], in [11], in assay [12] and in assay [13] was > 100 µM (inactive) in each case. Also, the GI50 in assay [14] and in assay [15] was > 100 µM (inactive) each time.
Consider `O=C(CSc1nnc(-c2ccc(/N=C\c3ccc(Cl)cc3)cc2)o1)Nc1ccc(Cl)cc1`, for which the GI50 in assay [16] was 41.7 µM (inactive); in [1] it was > 100 µM (inactive); in assay [2], > 100 µM (inactive); in assay [3], > 100 µM (inactive); in assay [4], > 100 µM (inactive); in assay [5] it was > 100 µM (inactive). The GI50 in [7], in assay [8], in assay [9], in [10], in assay [11] and in assay [12] was > 100 µM (inactive) each time. Moreover, the GI50 in assay [13], in assay [14] and in assay [15] was > 100 µM (inactive) in each case.
Consider `CCOC12SC(Nc3ccc(C)cc3)=NN1C(=S)N(C)N=C2C` (stereo unspecified), for which the GI50 in assay [16], in assay [1], in [2], in assay [3], in assay [4] and in assay [5] was > 100 µM (inactive) throughout. The GI50 in assay [7], in assay [8], in assay [10], in assay [11], in [13] and in [14] was > 100 µM (inactive) throughout. In addition, the GI50 in assay [15] was > 100 µM (inactive).
`N#CC12CCC1C1CCCCC12N1CCSCC1` (stereo unspecified): the GI50 is 51.1 µM (inactive) in [16]; > 100 µM (inactive) in assay [1]; > 100 µM (inactive) in assay [4]; > 100 µM (inactive) in [5]; > 100 µM (inactive) in assay [6]; > 100 µM (inactive) in assay [7]. Further, the GI50 was > 100 µM (inactive) in assay [8]; 16.3 µM (inactive) in assay [10]; > 10 µM (inactive) in assay [11]; > 100 µM (inactive) in [13]; > 100 µM (inactive) in [14]; > 100 µM (inactive) in [15].
As to `C/C=C(\CCOS(=O)(=O)c1ccc(C)cc1)[Si](C)(C)C`, the GI50 in assay [16], in assay [1], in assay [2], in assay [3], in assay [4] and in assay [5] was > 100 µM (inactive) in each case. In addition, the GI50 in assay [7] was 0.115 µM (active); in assay [8], > 100 µM (inactive); in assay [9], > 100 µM (inactive); in assay [10] it was > 100 µM (inactive); in [11], > 100 µM (inactive); in assay [12], > 100 µM (inactive). In addition, the GI50 in assay [13], in assay [14] and in assay [15] was > 100 µM (inactive) in each case.
Turning to `COC(=O)c1cc2c(c(C(=O)OC)c1O)C(=O)C=CC2=O`, the GI50 in assay [16] is > 9.1 µM (inactive); in assay [1] it was 35.7 µM (inactive); in [2], > 44.9 µM (inactive); in [3], > 40.6 µM (inactive); in assay [4], 27 µM (inactive); in assay [6] it was > 9.1 µM (inactive). Moreover, the GI50 in assay [7] was 1.63 µM (inactive); in assay [8], 40.7 µM (inactive); in [9], > 39.4 µM (inactive); in [11], > 32.8 µM (inactive); in [12] it was > 89.5 µM (inactive); in [13], > 39.9 µM (inactive). For the same molecule, the figures for the GI50 in assay [14] and in [15] were > 42.1 µM (inactive) and > 9.1 µM (inactive), respectively.
With `COc1ccc2nc(-c3ccccn3)cc(O)c2c1`, the GI50 in [16] was 37.8 µM (inactive); in assay [1], 90.2 µM (inactive); in [2], 24.2 µM (inactive); in assay [5] it was 32 µM (inactive); in [7] it was 51.2 µM (inactive); in [9] it was 96.4 µM (inactive). The GI50 in [10] was 34 µM (inactive); in assay [11] it was 50.7 µM (inactive); in [12], 52.7 µM (inactive); in assay [13] it was 35.5 µM (inactive); in assay [14], 47 µM (inactive); in [15], 32.8 µM (inactive).
Regarding `S=c1cc(S)c2c(=S)sc3nc4ccccn4c(=S)c3c2s1`, the GI50 in assay [16] was > 100 µM (inactive); in assay [1] it was 75.5 µM (inactive); in [2] it was 35.8 µM (inactive); in assay [4], > 100 µM (inactive); in assay [5], > 100 µM (inactive); in [6] it was > 100 µM (inactive). The GI50 is 32.7 µM (inactive) in [7]; 54.5 µM (inactive) in assay [8]; > 100 µM (inactive) in [9]; 36.1 µM (inactive) in assay [10]; > 100 µM (inactive) in assay [13]; 48.8 µM (inactive) in assay [14]. For the same molecule, in assay [15], the GI50 was 36.4 µM (inactive).
